Experiments:
[1] = system: SCC-S, H358 and H292 erlotinib-sensitive epithelial cell lines; assay: TGFβ-induced EMT, immunoblot of EMT markers and kinases; format: cell-based, human
Method: FIGS. 2A-2F depict that increased production of TGFβ induces an EMT-associated kinase switch which promotes erlotinib-resistance of tumor cells. A. Protein lysates were extracted from indicated cell lines Immunoblot analysis was performed with antibodies against E-cadherin, vimentin and β-actin. B. Tumor cell supernatants of 25 cancer cell lines shown in A were collected and differential levels of TGFβ production were analyzed by ELISA. C. […] Cells were collected at different time points and Immunoblot analysis was performed with indicated antibodies. […] Values were set at 100% for untreated controls. […]
Antibodies and immunoblot analysis. […] Protein concentrations were determined by the BCA method and lysates diluted in SDS sample buffer (Bio-Rad, Hercules, Calif.) prior to SDS-PAGE. […] ImageJ (ver 1.46) software was used to quantify immunoblot signals on exposed films.
Increased production of TGFβ induces an EMT-associated kinase switch that promotes erlotinib-resistance of tumor cells. […] To test whether TGFβ can promote this kinase switch, levels of phospho IGFR, PDGFR, FGFR and FAK kinases were assessed in response to treatment of erlotinib-sensitive cells (H358, H292 and SCC-S) with TGFβ1 for 21 days.

[2] = system: miR200 family members (200a, 200b, 200c and 205); assay: Real-time PCR of miR200 family after exposure to TGFβ; format: cell-based, human; details: SCC-S, H358 and H292 cells, exposure for 21 days
Method: RNA was extracted and expression levels of miR200a, miR200b, miR200c and miR205 were quantified by real-time PCR. B. RNA was extracted from four sensitive/resistant cancer cell lines pairs. Levels of miR200a, miR200b, miR200c and miR205 were measured and relative expression is presented as average fold change of each miRNA in erlotinib-sensitive cell lines relatively to that in resistant cells, which was given a value 1. […] Relative quantification of miRNA expression was performed by using RNU6b as an internal control. The results are presented as expression average of each miRNA in erlotinib-sensitive cell lines relatively to that in erlotinib-resistant cells.
(§1) Quantitative real-time PCR for miRNA. RNA from cultured cells was extracted using the mirVana™ Kit (Ambion, Austin, Tex.). Total RNA from fresh frozen tumors was isolated using the Trizol reagent (Invitrogen, Carlsbad, Calif.). Specific quantitative real-time PCR was carried out using TaqMan MicroRNA Assays for miR200a, miR200b, miR200c, miR205 and control RNU6b (Applied Biosystems, Foster City, Calif.) on a 7900HT detector (Applied Biosystems, Foster City, Calif.).
We next examined changes in miR200 levels in erlotinib-sensitive (SCC-S) and erlotinib-resistant (SCC-R) isogenic H&N cell lines.

Mig6 = assay: Immunoblot analysis of Mig6 after inhibitor exposure in parental and TGFβ-induced H358 cells; format: cell-based, human; details: 24 hours exposure
Method: A. Protein lysates were extracted from indicated cell lines Immunoblot analysis was performed with antibodies against E-cadherin, vimentin and β-actin. […] C. […] Cells were collected at different time points and Immunoblot analysis was performed with indicated antibodies. […] Values were set at 100% for untreated controls. […] F. Protein lysates were extracted from H358 cells treated with TGFβ1 or control vehicle for 21 days and immunoblot analysis was performed with antibodies against indicated RTKs. β-actin was used as a loading control.
Antibodies and immunoblot analysis. Pelleted cells were lysed on ice by adding RIPA lysis buffer (Thermo Scientific, Rockford, Ill.) supplemented with protease and phosphatase inhibitors (Roche, Basel, Switzerland). Protein concentrations were determined by the BCA method and lysates diluted in SDS sample buffer (Bio-Rad, Hercules, Calif.) prior to SDS-PAGE. Anti-Mig6 antibody was a gift from Dr. Ferby (Nature medicine. 2006; 12:568-73). β-actin was obtained from Abcam (Cambridge, Mass.). All other antibodies were obtained from Cell Signaling (Beverly, Mass.). Secondary horseradish peroxidase (HRP)-conjugated antibodies were from KPL (Gaithersburg, Md.) and signals developed using West-Pico chemiluminescence substrate (Thermo Scientific). ImageJ (ver 1.46) software was used to quantify immunoblot signals on exposed films. […]

[3] = system: AKT phosphorylation and Mig6 expression; assay: Immunoblot analysis of AKT phosphorylation and Mig6 after TGFβ blockade; format: cell-based, human; details: H1703 and JHU028 cells, TGFβ (2 ng/ml) plus SB-431542 (10 μM) for 7 days
Method: (§2) Two erlotinib-resistant cell lines (JHU028 and H1703) were treated with TGFβ (2 ng/ml) alone or in combination with SB-431542 (10 μM) for 7 days. A. Cell lysates were collected and subjected to immunoblot analysis with indicated antibodies. B. Levels of miR200c and miR205 were measured and relative expression is presented as ΔΔCt. C. […] Cell viability was assayed and values were set at 100% for untreated controls.
Antibodies and immunoblot analysis. Pelleted cells were lysed on ice by adding RIPA lysis buffer (Thermo Scientific, Rockford, Ill.) supplemented with protease and phosphatase inhibitors (Roche, Basel, Switzerland). Protein concentrations were determined by the BCA method and lysates diluted in SDS sample buffer (Bio-Rad, Hercules, Calif.) prior to SDS-PAGE. Anti-Mig6 antibody was a gift from Dr. Ferby (Nature medicine. 2006; 12:568-73). β-actin was obtained from Abcam (Cambridge, Mass.). All other antibodies were obtained from Cell Signaling (Beverly, Mass.). Secondary horseradish peroxidase (HRP)-conjugated antibodies were from KPL (Gaithersburg, Md.) and signals developed using West-Pico chemiluminescence substrate (Thermo Scientific). ImageJ (ver 1.46) software was used to quantify immunoblot signals on exposed films.
Autocrine or paracrine TGF3 signaling is required for the maintenance of the mesenchymal state. […]

[4] = system: JHU028 and H1703 erlotinib-resistant cell lines; assay: Cell viability assay, erlotinib sensitivity after TGFβ blockade; format: cell-based, human; details: TGFβ plus inhibitor (SB-431542 10 μM or TGFβ RII/Fc 20 ng/ml) 7 days, then 1 μM erlotinib 72 hours
Method: as §2
Cell viability assay. Relative cell viability was determined using an Alamar Blue assay as outlined by the manufacturer (AbDSerotec, Raleigh, N.C.). New media containing 1/10 volume of Alamar Blue reagent was added to the wells and cells were incubated at 37° C. for 1 hour. Fluorescence (545 nm excitation, 590 nm emission wavelengths) was measured using a SpectraMax Plus384 fluorometer (Sunnyvale, Calif.). Cell viability was calculated relative to an untreated culture of cells incubated in parallel.
(§3) Autocrine or paracrine TGF3 signaling is required for the maintenance of the mesenchymal state. Blockage of this signaling can inhibit or reverse EMT by upregulating miR200 and subsequently downregulating ZEB1/2 (28-31). As a corollary to this observation, over-expression of miR-200c restores the sensitivity of resistant NSCLC cells to the anti-EGFR antibody cetuximab. […]

miR200c and miR205 = assay: Quantitative real-time PCR for miR200c and miR205 after TGFβ blockade; format: cell-based, human; details: H1703 and JHU028 cells, TGFβ (2 ng/ml) plus SB-431542 (10 μM) for 7 days
Method: as §2, §1, §3

[5] = system: directly xenografted human NSCLC tumors; assay: Erlotinib response of directly xenografted primary human tumors in nude mice; format: in vivo; details: lung tumors CTG-0167, CTG-0502, CTG-0199 and CTG-0157 with low EGFR and Mig6 expression, Erlotinib 35 mg/kg
Excerpt: Xenograft generation. […] The animals were maintained in accordance to guidelines of the American Association of Laboratory Animal Care and the research protocol was approved by the Johns Hopkins University Animal Use and Care Committee.
We obtained 18 human NSCLCs, and 27 pancreatic tumors that were directly xenografted into nude mice. No erlotinib-sensitizing mutations in EGFR were detected in any of these tumors and there was no correlation of KRAS mutation with erlotinib response. For all models tested, miR200 levels were measured by quantitative RT-PCR and mRNA levels of Mig6 and EGFR were determined by Affymetrix expression array. […] Supporting this observation, an inverse correlation between miR200c and Mig6 expression levels was noted across the pancreatic models (data not shown). […] Unlike the limited predictive ability of the Mig6/EGFR ratio in such tumors with low EGFR expression, the Mig6(mRNA)/miR200c ratio was still able to correctly identify three out of four of these lung tumors with low EGFR mRNA as erlotinib-resistant. Therefore, the ratio of Mig6 to miR200 was a reliable predictive biomarker of the primary tumors response to EGFR TKIs regardless of their EGFR status.

TGFβ
EMT markers (loss of E-cadherin and upregulation of vimentin) ([1]; time course 1-21 days, TGF-β1 or TGF-β3, SCC-S, H358 and H292 cells): complete EMT by day 14 | expression of the miR200 family members (200a, 200b, 200c and 205) [2]: significantly reduced

N#CC(=C(/N)Sc1ccccc1N)/C(C#N)=C(\N)Sc1ccccc1N [U0126]
basal expression of Mig6 (Mig6): reduced basal expression of Mig6

TGFβ1: TGFβ isoform used to treat erlotinib-sensitive cells for 21 days
levels of phospho IGFR, PDGFR, FGFR and FAK kinases ([1]; H358, H292 and SCC-S cells, TGFβ1 for 21 days, compared to untreated counterparts): significantly greater activity

NC(=O)c1ccc(-c2nc(-c3ccc4c(c3)OCO4)c(-c3ccccn3)[nH]2)cc1 [SB-431542]
AKT phosphorylation [3]: downregulation | Mig6 expression [3]: downregulation | sensitivity of tumor cells to erlotinib [4]: increased the sensitivity of tumor cells to erlotinib | miR200c levels (miR200c and miR205): significant increase | miR205 levels (miR200c and miR205): significant increase

C#Cc1cccc(Nc2ncnc3cc(OCCOC)c(OCCOC)cc23)c1 [erlotinib]
erlotinib response of lung tumor xenografts [5]: erlotinib-resistant | basal expression of Mig6 (Mig6): reduced basal expression of Mig6

Source: patent US10801071B2, “TGF(β)-MIR200-MIG6 pathway and its use in the treatment of cancer as an indicator of resistance to EGFR inhibitors” (THE JOHNS HOPKINS UNIVERSITY, priority 2014, dated 2020)
